Measured values as given in paper PMC3470872 (Biochemical pharmacology, 2012).
Values joined by “and” are separate entries in the source; they are usually repeats but may differ in a detail not shown here. Identical values can stand only once.

Key:
[1] = system: MAGL; conditions: mouse brain membrane proteome; cited from earlier work
[2] = biological target: T1, recombinant human CES2 (Homo sapiens, UniProt O00748); experiment: Inactivation kinetics of recombinant CES2, pNPV hydrolysis progress curves; type: biochemical; conditions: CES1 and MAGL versus CES2
T1 sequence (O00748 27-559): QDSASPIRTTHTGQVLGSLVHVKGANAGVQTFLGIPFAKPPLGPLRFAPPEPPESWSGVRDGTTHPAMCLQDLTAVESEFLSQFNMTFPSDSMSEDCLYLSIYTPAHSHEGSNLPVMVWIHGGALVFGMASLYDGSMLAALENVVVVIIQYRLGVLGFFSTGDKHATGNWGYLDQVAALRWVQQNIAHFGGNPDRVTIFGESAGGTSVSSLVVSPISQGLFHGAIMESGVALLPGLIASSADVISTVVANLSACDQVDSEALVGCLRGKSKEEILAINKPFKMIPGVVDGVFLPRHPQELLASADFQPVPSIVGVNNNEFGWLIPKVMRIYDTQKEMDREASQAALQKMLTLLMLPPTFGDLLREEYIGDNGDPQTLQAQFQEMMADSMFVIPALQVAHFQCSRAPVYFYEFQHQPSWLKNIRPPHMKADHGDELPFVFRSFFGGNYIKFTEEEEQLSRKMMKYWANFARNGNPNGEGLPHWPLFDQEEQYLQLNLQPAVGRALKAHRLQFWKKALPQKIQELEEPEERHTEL

[3] = biological target: T2, CES1 (Homo sapiens, UniProt P23141); type: biochemical
T2 sequence (P23141 18-567): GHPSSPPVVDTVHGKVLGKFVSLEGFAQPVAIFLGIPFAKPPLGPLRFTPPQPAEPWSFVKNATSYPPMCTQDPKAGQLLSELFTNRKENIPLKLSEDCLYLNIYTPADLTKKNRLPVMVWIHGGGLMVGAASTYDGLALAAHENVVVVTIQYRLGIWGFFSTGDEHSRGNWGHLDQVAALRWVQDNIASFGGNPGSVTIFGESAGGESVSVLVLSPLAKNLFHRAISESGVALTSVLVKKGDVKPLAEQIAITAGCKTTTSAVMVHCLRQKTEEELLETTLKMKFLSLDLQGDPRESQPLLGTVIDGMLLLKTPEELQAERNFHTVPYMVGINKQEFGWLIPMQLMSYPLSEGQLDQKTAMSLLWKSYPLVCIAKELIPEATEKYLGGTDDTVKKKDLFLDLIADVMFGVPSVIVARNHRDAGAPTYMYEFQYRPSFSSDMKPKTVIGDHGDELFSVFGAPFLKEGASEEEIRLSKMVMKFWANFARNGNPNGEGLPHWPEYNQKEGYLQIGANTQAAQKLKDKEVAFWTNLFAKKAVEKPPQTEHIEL

[4] = system: HepG2 cells; experiment: Inhibition and recovery of esterase activity in intact HepG2 cells; type: cell-based
[5] = biological target: T2, CES1; experiment: Esterase activity of HepG2 cell lysate in presence of S-3030; type: biochemical
[6] = system: FAAH; conditions: rat brain membranes; cited from earlier work
[7] = biological target: rat ortholog of CES1; conditions: cited from earlier work
[8] = biological target: T2, CES1; experiment: Inactivation kinetics of recombinant CES1, pNPV hydrolysis progress curves; type: biochemical; conditions: comparison with oxon values of ref 24

O=C(Oc1ccc([N+](=O)[O-])cc1)N1CCC(C(O)(c2ccc3c(c2)OCO3)c2ccc3c(c2)OCO3)CC1 [JZL184]
IC50 [1]: […] | bimolecular rate constants for CES1 and MAGL greater than for CES2 [2]: 17-38 fold | reactivation rate slower than CES1 inhibited by URB597 [3]: 4.5 x | t1/2 (half life of reactivation) [3]: 49 ± 15 h and 49 h and 49 ± 15^b h | esterase activity remained depressed ([4]; 10 μM, 30 min treatment, over 48 hr after treatment): ~ 90% | inhibition of esterase activity ([4]; 10 μM, 30 min treatment, time 0, pNPV substrate): ≥ 90%

O=C1C(=O)c2sccc2-c2ccsc21 [S-3030, Thieno[3,2-e][1]benzothiophene-4,5-dione]
esterase activity sensitive to S-3030-mediated inhibition ([5]; activity recovered by 48 hr following URB597 treatment (data not shown)): 74% | share of esterase activity accounted for by CES1 (S-3030 sensitive) ([5]; untreated HepG2 cell lysate, 10 μM S-3030, pNPV substrate): 71.5±2.1%

NC(=O)c1cccc(-c2cccc(OC(=O)NC3CCCCC3)c2)c1 [URB597]
IC50 [6]: 4.6 nM | t1/2 (half life of reactivation) [3]: 11 h and 11 ± 4^a h | esterase activity, % of the control activity ([4]; 10 μM, 30 min treatment, recovery over 48 hr): 50% | inhibition at 10 µM ([4]; Homo sapiens, HepG2, 0.5 h, read-out: inhibition of esterase activity): ≥ 90%

CNC(=O)Oc1cccc2ccccc12 [carbaryl]
ki (bimolecular rate constant) [7]: 856 M⁻¹ s⁻¹

chlorpyrifos oxon
more reactive toward CES1 than JZL184 [8]: 500 x
